Reference: US20210085711A1 (Japan Tobacco Inc., priority 2017, published 2021)

Tests used:
Assay type in all cases: in vivo, human
[1] = test system: patients with hypermenorrhea and/or patients with hypermenorrhea-associated gynecologic diseases (iron-deficiency anemia patients); assay: Phase II clinical trial of JTT-751: hepcidin concentration (Hepcidin 25)
Protocol: (§1) This test was a three-stage safety and efficacy clinical trial at multi-facilities. The first stage was a pre-observation period (Day −40 to Day −1), the second stage was an administration period (Day 1 to Day 48) (efficacy and safety evaluation period), and the third stage was a post-observation period (Day 49 to Day 63) (efficacy and safety evaluation period). The safety evaluation and efficacy evaluation were performed by multi-facility collaboration, placebo control, random allocation, double-blind trial, and parallel group comparison test.
(§2) (1) Japanese patients who are 20 or more and less than 65 years old at the time of agreement and can visit an outpatient clinic (2) Patients who have an Hb value (measured using HemoCue® Hb 201 DM analyzer in the institute of clinical practice) of 7.0 g/dL or more and less than 11.0 g/dL on both the observation start date and Week 0, and the difference between the two days is 1.0 g/dL or less (3) Patients with a TIBC of 360 μg/dL or more or a serum ferritin value of less than 12 ng/mL on the observation start date
(§3) The administration period of the trial drug is seven weeks which starts from the next day of the Week 0 visit to the day before the Week 7 visit, provided that the trial drug is not taken on the scheduled Week 3 visit.
(§4) (2) Subsidiary evaluation items 1) Erythrocyte-related examination values and amount of change from Week 0 at each observation date 2) Iron-related test values and amount of change from Week 0 at each observation date 3) Achievement rate of target Hb value (female; 12.0 g/dL or more, male; 13.0 g/dL or more) at each observation date 4) Achievement rate of 1.0 g/dL or more and achievement rate of 2.0 g/dL or more in Hb value improvement from Week 0 at each observation date 5) Average daily change of Hb value from Week 0 to each observation date
(§5) The blood hemoglobin value (Hb), the serum iron level, the serum ferritin value, the total iron-binding capacity (TIBC) and the transferrin saturation rate (TSAT), and the mean corpuscular volume (MCV) were each examined at the observation start date, Week 0, Week 3, Week 7, the end of administration and the consultation at nine weeks after Week 0; the hepcidin concentration (Hepcidin 25) and the serum soluble transferrin receptor concentration (sTfR) were each examined on Week 0, Week 3 and Week 7 and at the end of administration; and the C-terminal FGF23 value (cFGF23) and the intact FGF23 value (iFGF23) were each examined on Week 0 and Week 7 and at the end of administration.

[2] = test system: patients with hypermenorrhea and/or patients with hypermenorrhea-associated gynecologic diseases (iron-deficiency anemia patients); assay: Phase II clinical trial of JTT-751: serum ferritin value
Protocol: as §1, §2, §3, §4, §5

[3] = test system: patients with hypermenorrhea and/or patients with hypermenorrhea-associated gynecologic diseases (iron-deficiency anemia patients); assay: Phase II clinical trial of JTT-751: C-terminal FGF23 value (cFGF23)
Protocol: as §1, §2, §3, §5

[4] = End of administration, JTT-751 250 mg group
[5] = End of administration, JTT-751 500 mg group
[6] = End of administration, JTT-751 1000 mg group
[7] = End of administration, JTT-751 1500 mg group
[8] = Week 0 (baseline), JTT-751 250 mg group
[9] = Week 0 (baseline), JTT-751 500 mg group
[10] = Week 0 (baseline), JTT-751 1000 mg group
[11] = Week 0 (baseline), JTT-751 1500 mg group
[12] = 250 mg/day, 9 weeks after Week 0
[13] = 250 mg/day, End of administration
[14] = 250 mg/day, Week 3 (Week 0 not given)
[15] = 500 mg/day, 9 weeks after Week 0
[16] = 500 mg/day, End of administration
[17] = 500 mg/day, Week 3 (Week 0 not given)
[18] = 1000 mg/day, 9 weeks after Week 0
[19] = 1000 mg/day, End of administration
[20] = 1000 mg/day, Week 3 (Week 0 not given)
[21] = 1500 mg/day, 9 weeks after Week 0
[22] = 1500 mg/day, End of administration
[23] = 1500 mg/day, Week 3 (Week 0 not given)

Ferric citrate [JTT-751]
Hepcidin-25, Mean [1, 4]: 2.196 pg/mL | Hepcidin-25, Median [1, 4]: 1.520 pg/mL | Hepcidin-25, Mean [1, 5]: 4.818 pg/mL | Hepcidin-25, Median [1, 5]: 3.925 pg/mL | Hepcidin-25, Mean [1, 6]: 11.465 pg/mL | Hepcidin-25, Median [1, 6]: 9.680 pg/mL | Hepcidin-25, Mean [1, 7]: 11.674 pg/mL | Hepcidin-25, Median [1, 7]: 8.440 pg/mL | Hepcidin-25, Mean [1, 8]: 0.726 pg/mL | Hepcidin-25, Median [1, 8]: 0.715 pg/mL | Hepcidin-25, Mean [1, 9]: 0.593 pg/mL | Hepcidin-25, Median [1, 9]: 0.290 pg/mL | Hepcidin-25, Mean [1, 10]: 0.509 pg/mL | Hepcidin-25, Median [1, 10]: 0.410 pg/mL | Hepcidin-25, Mean [1, 11]: 0.631 pg/mL | Hepcidin-25, Median [1, 11]: 0.600 pg/mL | Hepcidin 25 concentration, time-dependent change ([1]; Week 0, Week 3 and Week 7): increased along with the continuous administration | Hepcidin-25, Mean ([1]; Week 3, JTT-751 250 mg group): 1.289 pg/mL | Hepcidin-25, Median ([1]; Week 3, JTT-751 250 mg group): 0.695 pg/mL | Hepcidin-25, Mean ([1]; Week 3, JTT-751 500 mg group): 1.839 pg/mL | Hepcidin-25, Median ([1]; Week 3, JTT-751 500 mg group): 0.895 pg/mL | Hepcidin-25, Mean ([1]; Week 3, JTT-751 1000 mg group): 8.623 pg/mL | Hepcidin-25, Median ([1]; Week 3, JTT-751 1000 mg group): 8.430 pg/mL | Hepcidin-25, Mean ([1]; Week 3, JTT-751 1500 mg group): 7.813 pg/mL | Hepcidin-25, Median ([1]; Week 3, JTT-751 1500 mg group): 5.940 pg/mL | Hepcidin-25, Mean ([1]; Week 7, JTT-751 250 mg group): 2.196 pg/mL | Hepcidin-25, Median ([1]; Week 7, JTT-751 250 mg group): 1.520 pg/mL | Hepcidin-25, Mean ([1]; Week 7, JTT-751 500 mg group): 4.818 pg/mL | Hepcidin-25, Median ([1]; Week 7, JTT-751 500 mg group): 3.925 pg/mL | Hepcidin-25, Mean ([1]; Week 7, JTT-751 1000 mg group): 11.465 pg/mL | Hepcidin-25, Median ([1]; Week 7, JTT-751 1000 mg group): 9.680 pg/mL | Hepcidin-25, Mean ([1]; Week 7, JTT-751 1500 mg group): 11.674 pg/mL | Hepcidin-25, Median ([1]; Week 7, JTT-751 1500 mg group): 8.440 pg/mL | Ferritin, Mean [2, 12]: 2.88 ng/mL | Ferritin, Median [2, 12]: 2.60 ng/mL | Ferritin, Mean [2, 13]: 11.38 ng/mL | Ferritin, Median [2, 13]: 11.45 ng/mL | Ferritin, Mean [2, 14]: 11.16 ng/mL | Ferritin, Median [2, 14]: 7.70 ng/mL | Ferritin, Mean ([2]; 250 mg/day, Week 7): 11.38 ng/mL | Ferritin, Median ([2]; 250 mg/day, Week 7): 11.45 ng/mL | Ferritin, Mean [2, 15]: 4.28 ng/mL | Ferritin, Median [2, 15]: 3.60 ng/mL | Ferritin, Mean [2, 16]: 16.12 ng/mL | Ferritin, Median [2, 16]: 14.30 ng/mL | Ferritin, Mean [2, 17]: 15.26 ng/mL | Ferritin, Median [2, 17]: 12.40 ng/mL | Ferritin, Mean ([2]; 500 mg/day, Week 7): 16.12 ng/mL | Ferritin, Median ([2]; 500 mg/day, Week 7): 14.30 ng/mL | Ferritin, Mean [2, 18]: 7.51 ng/mL | Ferritin, Median [2, 18]: 7.20 ng/mL | Ferritin, Mean [2, 19]: 17.02 ng/mL | Ferritin, Median [2, 19]: 16.30 ng/mL | Ferritin, Mean [2, 20]: 26.96 ng/mL | Ferritin, Median [2, 20]: 23.20 ng/mL | Ferritin, Mean ([2]; 1000 mg/day, Week 7): 17.02 ng/mL | Ferritin, Median ([2]; 1000 mg/day, Week 7): 16.30 ng/mL | Ferritin, Mean [2, 21]: 5.83 ng/mL | Ferritin, Median [2, 21]: 5.35 ng/mL | Ferritin, Mean [2, 22]: 17.38 ng/mL | Ferritin, Median [2, 22]: 16.60 ng/mL | Ferritin, Mean [2, 23]: 20.43 ng/mL | Ferritin, Median [2, 23]: 22.20 ng/mL | Ferritin, Mean ([2]; 1500 mg/day, Week 7): 17.38 ng/mL | Ferritin, Median ([2]; 1500 mg/day, Week 7): 16.60 ng/mL | serum ferritin value (printed: serum iron level), increased to a normal value ([2]; continuous administration from Week 0 to Week 3): 12 to 30 ng/mL | cFGF23, Mean [3, 13]: 214.72 RU/mL | cFGF23, Median [3, 13]: 158.50 RU/mL | cFGF23, Mean ([3]; 250 mg/day, Week 0 (baseline)): 779.17 RU/mL | cFGF23, Median ([3]; 250 mg/day, Week 0 (baseline)): 705.00 RU/mL | cFGF23, Mean ([3]; 250 mg/day, Week 7): 214.72 RU/mL | cFGF23, Median ([3]; 250 mg/day, Week 7): 158.50 RU/mL | cFGF23, Mean [3, 16]: 151.89 RU/mL | cFGF23, Median [3, 16]: 127.50 RU/mL | cFGF23, Mean ([3]; 500 mg/day, Week 0 (baseline)): 1011.06 RU/mL | cFGF23, Median ([3]; 500 mg/day, Week 0 (baseline)): 773.50 RU/mL | cFGF23, Mean ([3]; 500 mg/day, Week 7): 151.89 RU/mL | cFGF23, Median ([3]; 500 mg/day, Week 7): 127.50 RU/mL | cFGF23, Mean [3, 19]: 130.39 RU/mL | cFGF23, Median [3, 19]: 100.00 RU/mL | cFGF23, Mean ([3]; 1000 mg/day, Week 0 (baseline)): 675.16 RU/mL | cFGF23, Median ([3]; 1000 mg/day, Week 0 (baseline)): 564.00 RU/mL | cFGF23, Mean ([3]; 1000 mg/day, Week 7): 130.39 RU/mL | cFGF23, Median ([3]; 1000 mg/day, Week 7): 100.00 RU/mL | cFGF23, Mean [3, 22]: 114.92 RU/mL | cFGF23, Median [3, 22]: 94.20 RU/mL | cFGF23, Mean ([3]; 1500 mg/day, Week 0 (baseline)): 842.52 RU/mL | cFGF23, Median ([3]; 1500 mg/day, Week 0 (baseline)): 777.00 RU/mL | cFGF23, Mean ([3]; 1500 mg/day, Week 7): 114.92 RU/mL | cFGF23, Median ([3]; 1500 mg/day, Week 7): 94.20 RU/mL | C-terminal FGF23 value (cFGF23), time-dependent change ([3]; continuous administration): decreased along with the continuous administration
